Measured values from paper PMC9516332 (Frontiers in Oncology, 2022).
Where two headings read alike, the source gives them in different places.

Tested on: 134 cancer cell lines
Assay: Cell viability assay (ATPlite, 72 hours), IC50 on cancer cell line panel

IC50 (HEC-6, read-out: IC50 in cell proliferation assay, HEC-6 cell line (EGFR p.A289V)): > 31.6 µM
IC50 (Homo sapiens, 769-P, read-out: IC50 in cell proliferation assay, cell line 769-P): 31.1 µM
IC50 (Homo sapiens, 786-0, read-out: IC50 in cell proliferation assay, cell line 786-O): 14.2 µM
IC50 (Homo sapiens, A 172, read-out: IC50 in cell proliferation assay, cell line A-172): > 31.6 µM
IC50 (Homo sapiens, A204, read-out: IC50 in cell proliferation assay, cell line A-204): 1.19 µM
IC50 (Homo sapiens, A498, read-out: IC50 in cell proliferation assay, cell line A-498): 3.39 µM
IC50 (Homo sapiens, A549, read-out: IC50 in cell proliferation assay, cell line A-549): 23.9 µM
IC50 (Homo sapiens, A704, read-out: IC50 in cell proliferation assay, cell line A-704): > 31.6 µM
IC50 (Homo sapiens, A-375, read-out: IC50 in cell proliferation assay, cell line A-375 (BRAF p.V600E)): 23.4 µM
IC50 (Homo sapiens, A-427, read-out: IC50 in cell proliferation assay, cell line A-427): 14.9 µM
IC50 (Homo sapiens, ACHN, read-out: IC50 in cell proliferation assay, cell line ACHN): 7.17 µM
IC50 (Homo sapiens, AN3-CA, read-out: IC50 in cell proliferation assay, cell line AN3-CA (FGFR2 p.N549K)): 4.2 µM
IC50 (Homo sapiens, ASPC1, read-out: IC50 in cell proliferation assay, cell line AsPC-1): > 31.6 µM
IC50 (Homo sapiens, AU565, read-out: IC50 in cell proliferation assay, cell line AU565 (ERBB2 amplification)): 7.67 µM
IC50 (Homo sapiens, BT-20, read-out: IC50 in cell proliferation assay, cell line BT-20): 30 µM
IC50 (Homo sapiens, BT-474, read-out: IC50 in cell proliferation assay, cell line BT-474 (ERBB2 amplification)): 9.09 µM
IC50 (Homo sapiens, BT-549, read-out: IC50 in cell proliferation assay, cell line BT-549): 0.348 µM
IC50 (Homo sapiens, BXPC-3, read-out: IC50 in cell proliferation assay, cell line BxPC-3): 16.6 µM
IC50 (Homo sapiens, C-33-A, read-out: IC50 in cell proliferation assay, cell line C-33 A): 9.87 µM
IC50 (Homo sapiens, CAL-27, read-out: IC50 in cell proliferation assay, cell line CAL-27): 8.89 µM
IC50 (Homo sapiens, CCF-STTG1, read-out: IC50 in cell proliferation assay, cell line CCF-STTG1): > 31.6 µM
IC50 (Homo sapiens, CCRF-CEM, read-out: IC50 in cell proliferation assay, cell line CCRF-CEM): 0.916 µM
IC50 (Homo sapiens, COLO 205, read-out: IC50 in cell proliferation assay, cell line COLO 205 (BRAF p.V600E)): 20.5 µM
IC50 (Homo sapiens, COLO-829, read-out: IC50 in cell proliferation assay, cell line COLO 829 (BRAF p.V600E)): > 31.6 µM
IC50 (Homo sapiens, DLD-1, read-out: IC50 in cell proliferation assay, cell line DLD-1): 18.5 µM
IC50 (Homo sapiens, DU-4475, read-out: IC50 in cell proliferation assay, cell line DU4475 (BRAF p.V600E)): > 31.6 µM
IC50 (Homo sapiens, Daoy, read-out: IC50 in cell proliferation assay, cell line Daoy): 12.1 µM
IC50 (Homo sapiens, DoTc2-4510, read-out: IC50 in cell proliferation assay, cell line DoTc2 4510): 8.98 µM
IC50 (Homo sapiens, EOL1, read-out: IC50 in cell proliferation assay, cell line EoL-1 (FIP1L1-PDGFRA)): 0.033 µM
IC50 (Homo sapiens, FaDu, read-out: IC50 in cell proliferation assay, cell line FaDu): 18.7 µM
IC50 (Homo sapiens, G-361, read-out: IC50 in cell proliferation assay, cell line G-361 (BRAF p.V600E)): 22.1 µM
IC50 (Homo sapiens, HCC827, read-out: IC50 in cell proliferation assay, cell line HCC827 (EGFR exon19del)): 2.18 µM
IC50 (Homo sapiens, HCC4006, read-out: IC50 in cell proliferation assay, cell line HCC4006 (EGFR exon19del)): 26 µM
IC50 (Homo sapiens, HCT-15, read-out: IC50 in cell proliferation assay, cell line HCT 15): > 31.6 µM
IC50 (Homo sapiens, HCT-116, read-out: IC50 in cell proliferation assay, cell line HCT 116): 27.6 µM
IC50 (Homo sapiens, HEC-1, read-out: IC50 in cell proliferation assay, HEC-1 cell line): 11.2 µM
IC50 (Homo sapiens, HEC-1B, read-out: IC50 in cell proliferation assay, HEC-1-B cell line (EGFR p.A864V)): 4.51 µM
IC50 (Homo sapiens, HL-60, read-out: IC50 in cell proliferation assay, HL-60 cell line): 4.97 µM
IC50 (Homo sapiens, HT, read-out: IC50 in cell proliferation assay, HT cell line): 4.63 µM
IC50 (Homo sapiens, HT-1080, read-out: IC50 in cell proliferation assay, HT-1080 cell line): 3.97 µM
IC50 (Homo sapiens, Hs746T, read-out: IC50 in cell proliferation assay, Hs 746.T cell line (MET exon14skip + amplification)): 4.43 µM
IC50 (Homo sapiens, Hs-578T, read-out: IC50 in cell proliferation assay, Hs 578T cell line): 2.62 µM
IC50 (Homo sapiens, HuTu80, read-out: IC50 in cell proliferation assay, HuTu 80 cell line): 15 µM
IC50 (Homo sapiens, J82, read-out: IC50 in cell proliferation assay, J82 cell line): 23.8 µM
IC50 (Homo sapiens, Jurkat E6.1, read-out: IC50 in cell proliferation assay, Jurkat E6.1 cell line): 6.94 µM
IC50 (Homo sapiens, K562, read-out: IC50 in cell proliferation assay, K-562 cell line): 12.3 µM
IC50 (Homo sapiens, KATO III, read-out: IC50 in cell proliferation assay, KATO III cell line (FGFR2 amplification)): 23.1 µM
IC50 (Homo sapiens, KG-1, read-out: IC50 in cell proliferation assay, KG-1 cell line (FGFR1OP2-FGFR1)): > 31.6 µM
IC50 (Homo sapiens, KLE, read-out: IC50 in cell proliferation assay, KLE cell line): 4.37 µM
IC50 (Homo sapiens, KMS-11, read-out: IC50 in cell proliferation assay, KMS-11 cell line (FGFR3 p.Y373C)): 11.4 µM
IC50 (Homo sapiens, KU812, read-out: IC50 in cell proliferation assay, Ku812 cell line): 12.8 µM
IC50 (Homo sapiens, Kasumi 1, read-out: IC50 in cell proliferation assay, Kasumi-1 cell line (KIT p.N822K)): 5.79 µM
IC50 (Homo sapiens, LC-2-ad, read-out: IC50 in cell proliferation assay, LC-2/ad cell line (CCDC6-RET)): 0.095 µM
IC50 (Homo sapiens, LNCaP-Clone-FGC, read-out: IC50 in cell proliferation assay, LNCaP clone FGC cell line): 0.119 µM
IC50 (Homo sapiens, LS174T, read-out: IC50 in cell proliferation assay, LS174T cell line): 31.2 µM
IC50 (Homo sapiens, LS-411N, read-out: IC50 in cell proliferation assay, LS411N cell line (BRAF p.V600E)): 26.3 µM
IC50 (Homo sapiens, LoVo, read-out: IC50 in cell proliferation assay, LoVo cell line): 9.26 µM
IC50 (Homo sapiens, MCF7, read-out: IC50 in cell proliferation assay, MCF-7 cell line): 11.8 µM
IC50 (Homo sapiens, MDA-MB-231, read-out: IC50 in cell proliferation assay, MDA-MB-231 cell line): > 31.6 µM
IC50 (Homo sapiens, MDA-MB-453, read-out: IC50 in cell proliferation assay, MDA-MB-453 cell line): > 31.6 µM
IC50 (Homo sapiens, MDA-MB-468, read-out: IC50 in cell proliferation assay, MDA-MB-468 cell line): 1.3 µM
IC50 (Homo sapiens, MG-63, read-out: IC50 in cell proliferation assay, MG-63 cell line): 7.8 µM
IC50 (Homo sapiens, MIA PaCa-2, read-out: IC50 in cell proliferation assay, MIA PaCa-2 cell line): 12.9 µM
IC50 (Homo sapiens, MKN-45, read-out: IC50 in cell proliferation assay, MKN45 cell line (MET amplification)): 2.36 µM
IC50 (Homo sapiens, MOLM-13, read-out: IC50 in cell proliferation assay, MOLM-13 cell line (FLT3 ITD)): 0.004 µM
IC50 (Homo sapiens, MOLT-4, read-out: IC50 in cell proliferation assay, MOLT-4 cell line): 5.92 µM
IC50 (Homo sapiens, MV4-11, read-out: IC50 in cell proliferation assay, MV4-11 cell line (FLT3 ITD)): 0.014 µM
SMILES: C[C@H](Nc1ncnc2nc[nH]c12)c1cc2cccc(Cl)c2c(=O)n1-c1ccccc1 [duvelisib]
